Like-named read-outs stand apart in the source and are kept apart here.
Experiments:
db/db mice [1] = experiment: Pancreatic tissue protecting action: number and maximum area of Langerhans islets in pancreatic sections of db/db mice, Test Example 2; format: in vivo; settings: for Maximum area of Langerhans islets relative to that observed in the negative test / Number of Langerhans islets relative to negative sample-administered mice: 1 μg, 43rd day of continuous administration; for The numbers of Langerhans islets in sections on 43rd day of administration / Maximum area of Langerhans islets on administration: male db/db mice, 1 μg orally once a day for 42 days; for The numbers of Langerhans islets in sections on 43rd day of administration: hematoxylin-eosin stained pancreatic sections; for Maximum area of Langerhans islets on administration: pancreatic sections
Experimental: The final DMSO concentration was adjusted to 0.2%. […] On the 43rd day of the continuous administration, the pancreas was extracted, divided into three portions of upstream, midstream and downstream from the duodenum side, and fixed with a formalin solution, and then paraffin blocks were prepared in a conventional manner. Section slides were prepared from the paraffin blocks, and subjected to hematoxylin-eosin staining. The numbers of Langerhans islets existing on the sections of the 3 position of the pancreas, and area of Langerhans islet having the maximum area on each section were measured by using an ocular micrometer on a microscope (“ECLIPSE E600”, NIKON CORP.).

db/db mice [2] = settings: for Pancreatic function protecting effect: 0.1 μg/animal; for Pancreatic function protecting effect / Serum insulin level relative to that observed in the negative test: 43rd day of continuous administration; for Serum insulin level relative to that observed in the negative test: 1 μg/animal; for Serum insulin levels on 43rd day of administration: male db/db mice, ELISA
Experimental: This test was performed in order to evaluate the pancreatic endocrine gland cell function (insulin production ability) protecting action of a compound having the cyclolanostane skeleton by using db/db mice known as a model animal of pancreatic hypofunction or pancreatic tissue dysfunction.
In this test, 6-week old male db/db mice (purchased from Clea Japan, Inc.) were used. These mice were divided into groups, each consisting of 7 animals. Each test sample was dissolved in DMSO, and the concentration was adjusted to 0.1 or 1 μg/mL with physiological saline. The final DMSO concentration was adjusted to 0.2%. The pancreatic disorder model mice were orally administered with 1 mL of the test sample once a day everyday for 42 days with a sonde. The serum insulin level was measured on the 43rd day of the continuous administration by using Lbis insulin mouse ELISA kit (Shibayagi Co., Ltd).

[3] = 0.1 μg/animal orally once a day for 42 days
[4] = 1 μg/animal orally once a day for 42 days

Row | SMILES | Maximum area of Langerhans islets relative to that observed in the negative test (db/db mice [1]) | Number of Langerhans islets relative to negative sample-administered mice (db/db mice [1]) | The numbers of Langerhans islets in sections on 43rd day of administration (db/db mice [1]) | Maximum area of Langerhans islets on administration (db/db mice [1]) | Pancreatic function protecting effect (db/db mice [2]) | Serum insulin level relative to that observed in the negative test (db/db mice [2]) | Serum insulin levels on 43rd day of administration (db/db mice [2]; [3]) | Serum insulin levels on 43rd day of administration (db/db mice [2]; [4])
1 | CC(C)CCCC(C)C1CCC2(C)C3CCC4C(C)(C)C(O)CCC45CC35CCC12C (stereo not shown) [Test sample 1, 9,19-cyclolanostan-3-ol] | 1.8 times | 149% | 60.0 ± 14.8 piece | 78.6 ± 3.3 × 10^3 μm^2 | any significant pancreatic function protecting effect was not observed | 160% | 1.74 ± 0.26 ng/mL | 3.19 ± 0.78 ng/mL
2 | C=C(CCC(C)C1CCC2(C)C3CCC4C(C)(C)C(O)CCC45CC35CCC12C)C(C)C (stereo not shown) [Test sample 2, 24-methylene-9,19-cyclolanostan-3-ol] | 3.1 times | 148% | 59.6 ± 11.6 piece | 140.0 ± 102.8 × 10^3 μm^2 | any significant pancreatic function protecting effect was not observed | 170% | 1.94 ± 0.56 ng/mL | 3.39 ± 1.35 ng/mL
